We go through 2 molecules from article PMC3261128, “Modulation of phosphofructokinase (PFK) from Setaria cervi, a bovine filarial parasite, by different effectors and its interaction with some antifilarials” (2011).

The structures appear in SMILES notation.

In general, Ki refers to a dissociation constant, usually derived from enzyme kinetics or from competition with a known ligand.

Holding throughout (assay type): biochemical
Assay [1] has as its system T1, Phosphofructokinase (PFK).
T1 construct: native enzyme purified from adult female worms
Conditions: 5000 µM.

In assay [2] the target is T1, Phosphofructokinase (PFK). The assay can be described thus: coupled enzyme assay (NADH oxidation), Ki and Hill plot.
In assay [3] the target is T2, rat liver PFK (phosphofructokinase) (Rattus norvegicus, UniProt P30835).
T2 construct: gene Pfkl; native enzyme partially purified from rat liver
T2 sequence (P30835 2-780): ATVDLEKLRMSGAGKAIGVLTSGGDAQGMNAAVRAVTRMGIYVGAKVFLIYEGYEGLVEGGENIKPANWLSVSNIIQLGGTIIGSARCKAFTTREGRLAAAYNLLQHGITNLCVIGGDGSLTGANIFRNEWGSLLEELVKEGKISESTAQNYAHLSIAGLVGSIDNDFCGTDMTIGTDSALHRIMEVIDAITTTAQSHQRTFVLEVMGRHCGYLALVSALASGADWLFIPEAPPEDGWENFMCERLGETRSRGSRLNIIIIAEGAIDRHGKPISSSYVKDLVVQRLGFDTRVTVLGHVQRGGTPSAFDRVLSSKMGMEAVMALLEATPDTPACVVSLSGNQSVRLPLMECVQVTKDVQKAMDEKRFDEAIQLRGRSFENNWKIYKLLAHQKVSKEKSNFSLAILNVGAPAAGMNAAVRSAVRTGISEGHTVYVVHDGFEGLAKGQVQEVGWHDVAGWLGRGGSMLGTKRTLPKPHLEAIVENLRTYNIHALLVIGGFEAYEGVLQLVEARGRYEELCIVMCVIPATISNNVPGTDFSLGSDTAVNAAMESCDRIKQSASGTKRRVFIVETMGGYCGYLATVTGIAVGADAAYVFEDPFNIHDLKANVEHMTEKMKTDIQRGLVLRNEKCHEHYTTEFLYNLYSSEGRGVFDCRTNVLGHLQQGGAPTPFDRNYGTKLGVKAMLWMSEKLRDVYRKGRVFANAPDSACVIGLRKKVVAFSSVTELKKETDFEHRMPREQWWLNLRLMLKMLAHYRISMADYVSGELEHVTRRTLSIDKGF
The description is as above. The source says: coupled enzyme assay (NADH oxidation), Ki and Hill plot on rat liver PFK (phosphofructokinase) | inhibition of rat liver PFK was of the non-competitive type (Figure 5A) and the Ki value of suramin

On to `c1ccc([C@H]2CN3CCSC3=N2)cc1` [Levamisole], for which the “% Residual Activity / 5” value in assay [1] is reported as 45.

For `Cc1ccc(C(=O)Nc2ccc(S(=O)(=O)O)c3cc(S(=O)(=O)O)cc(S(=O)(=O)O)c23)cc1NC(=O)c1cccc(NC(=O)Nc2cccc(C(=O)Nc3cc(C(=O)Nc4ccc(S(=O)(=O)O)c5cc(S(=O)(=O)O)cc(S(=O)(=O)O)c45)ccc3C)c2)c1` [suramin], the Ki was 1.1 ± 0.1 nM in assay [2] and 40 ± 1 nM in assay [3].
